Data set [1] can be described thus: Stability of spiked APAP and AP in saliva (HPLC). The class given is physicochemical. The source says:
Non-invasive estimates of physiological and pharmacokinetic alterations may be obtained by measuring the concentrations of certain compounds and their metabolites in liquid biological samples (e.g., saliva). For example, gastrointestinal activity and the absorption, bioavailability and elimination of acetaininophen (“APAP”) may be assessed by measuring APAP concentrations in liquid biological samples following oral administration of APAP. In addition, hepatic metabolism may be measured indirectly from the clearance of orally administered antipyrine (“AP”) from liquid biological samples. The accuracy of such non-invasive estimates depends, in part, upon the stability of the reference compound or metabolite in the liquid biological sample. Therefore, the effectiveness of a particular preservative may be evaluated by determining the degradation time course for a known quantity of a specific reference compound.
The effectiveness of the preservative of the present invention was evaluated by measuring the stability of APAP and AP in saliva samples stored at −20° C. as compared to saliva samples stored at room temperature and containing sodium benzoate and citric acid in an amount of 0.25% and 0.05% of the sample (weight/volume), respectively (“P1”). Saliva samples were collected from forty subjects, pooled, aliquoted and spiked with APAP (5 or 25 μg/ml) or AP (5 or 50 μg/ml). Duplicate samples were analyzed by high performance liquid chromatography on days 1, 14, 28, 60, 120, 180, 240 and 360 (see Tables 1-4 below).

The format of data set [2] is physicochemical. The conditions noted are these: for SALIVA STABILITY OF MELATONIN: human; for storage time over which concentrations in saliva were comparable / preserved: room temperature in the presence of P1 versus −20° C. How it is done:
The effectiveness of the preservative of the present invention in maintaining the stability of hormones in liquid biological samples was evaluated by measuring the maintenance of base-line physiological levels of melatonin and cortisol in saliva. Aliquots (non-spiked) of the pooled saliva samples containing base-line physiological levels of melatonin and cortisol were stored −20° C. or at room temperature and containing sodium benzoate and citric acid in an amount of 0.25% and 0.05% of the sample (weight/volume), respectively (“P1”). Duplicate samples were analyzed by radioimmunoassay on days 1, 14, 28, 60, 120, 180, 240 and 360 (see Tables 5 and 6 below).

Read-outs that look alike come from different tables or passages of the source.

With `CC(=O)Nc1ccc(O)cc1` [APAP, acetaminophen], the “Saliva Stability (APAP concentration)” value in data set [1] (5 μg/ml APAP, No Preservative, −20° C., Day 01) worked out at 5.83 ± 0.08 µg/mL; in data set [1] (5 μg/ml APAP, No Preservative, −20° C., Day 14) it was 6.59 ± 0.61 µg/mL; in data set [1] (5 μg/ml APAP, No Preservative, −20° C., Day 28) it was 5.81 ± 0.08 µg/mL; in data set [1] (5 μg/ml APAP, No Preservative, −20° C., Day 60), 5.82 ± 0.20 µg/mL; in data set [1] (5 μg/ml APAP, No Preservative, −20° C., Day 120), 5.54 ± 0.33 µg/mL; in data set [1] (5 μg/ml APAP, No Preservative, −20° C., Day 180), 3.77 ± 0.03 µg/mL. In addition, the “Saliva Stability (APAP concentration)” value came out at 4.17 ± 0.16 µg/mL in data set [1] (5 μg/ml APAP, No Preservative, −20° C., Day 240); 5.14 ± 0.09 µg/mL in data set [1] (5 μg/ml APAP, No Preservative, −20° C., Day 360); 5.49 ± 0.09 µg/mL in data set [1] (5 μg/ml APAP, P1, RT, Day 01); 5.38 ± 0.14 µg/mL in data set [1] (5 μg/ml APAP, P1, RT, Day 14); 4.83 ± 1.79 µg/mL in data set [1] (5 μg/ml APAP, P1, RT, Day 28); 6.89 ± 0.94 µg/mL in data set [1] (5 μg/ml APAP, P1, RT, Day 60). Moreover, the “Saliva Stability (APAP concentration)” value was found to be 5.40 ± 0.20 µg/mL in data set [1] (5 μg/ml APAP, P1, RT, Day 120); 4.37 ± 0.08 µg/mL in data set [1] (5 μg/ml APAP, P1, RT, Day 180); 4.29 ± 0.25 µg/mL in data set [1] (5 μg/ml APAP, P1, RT, Day 240); 5.31 ± 0.43 µg/mL in data set [1] (5 μg/ml APAP, P1, RT, Day 360); 24.88 ± 0.22 µg/mL in data set [1] (25 μg/ml APAP, No Preservative, −20° C., Day 01); 25.60 ± 0.41 µg/mL in data set [1] (25 μg/ml APAP, No Preservative, −20° C., Day 14). The “Saliva Stability (APAP concentration)” value is 25.25 ± 0.48 µg/mL in data set [1] (25 μg/ml APAP, No Preservative, −20° C., Day 28); 25.02 ± 0.4 µg/mL in data set [1] (25 μg/ml APAP, No Preservative, −20° C., Day 60); 25.45 ± 0.49 µg/mL in data set [1] (25 μg/ml APAP, No Preservative, −20° C., Day 120); 16.71 ± 0.50 µg/mL in data set [1] (25 μg/ml APAP, No Preservative, −20° C., Day 180); 18.20 ± 0.14 µg/mL in data set [1] (25 μg/ml APAP, No Preservative, −20° C., Day 240); 24.37 ± 0.36 µg/mL in data set [1] (25 μg/ml APAP, No Preservative, −20° C., Day 360). Moreover, the “Saliva Stability (APAP concentration)” value in data set [1] (25 μg/ml APAP, P1, RT, Day 01) came out at 24.94 ± 0.56 µg/mL; in data set [1] (25 μg/ml APAP, P1, RT, Day 14), 24.63 ± 0.12 µg/mL; in data set [1] (25 μg/ml APAP, P1, RT, Day 28), 27.3 ± 1.54 µg/mL; in data set [1] (25 μg/ml APAP, P1, RT, Day 60), 29.88 ± 3.58 µg/mL; in data set [1] (25 μg/ml APAP, P1, RT, Day 120), 24.20 ± 0.47 µg/mL; in data set [1] (25 μg/ml APAP, P1, RT, Day 180), 17.55 ± 0.46 µg/mL. In addition, the “Saliva Stability (APAP concentration)” value in data set [1] (25 μg/ml APAP, P1, RT, Day 240) was determined as 17.21 ± 0.36 µg/mL; in data set [1] (25 μg/ml APAP, P1, RT, Day 360), 25.70 ± 0.55 µg/mL.
Take `COc1ccc2[nH]cc(CCNC(C)=O)c2c1` [Melatonin, melatonin]: the “SALIVA STABILITY OF MELATONIN” value worked out at 31.71 ± 4.4 pg/mL in data set [2] (28 day) and 29.43 ± 5.9 pg/mL in data set [2] (28 days). Besides, in data set [2], the “storage time over which concentrations in saliva were comparable / preserved” value is recorded as 180 days.
As to `C[C@]12CCC(=O)C=C1CC[C@@H]1[C@@H]2[C@@H](O)C[C@@]2(C)[C@H]1CC[C@]2(O)C(=O)CO` [Cortisol, cortisol], the “storage time over which concentrations in saliva were comparable / preserved” value in data set [2] was 180 days.

These data come from patent publication US6716392B1, “Preservation of liquid biological samples” (The United States of America as represented by the United …, priority 1995, dated 2004).
